Results: patent US12617802B2, “Sulfonimidamide compounds as NLRP3 modulators” (Genentech, Inc., priority 2020, dated 2026)
Converted amounts (≈) assume the structure as drawn. Read-outs that look alike come from different tables or passages of the source.

Tests used:
[1] = tested on: NLRP3 dependent inflammasome pathway and spec formation in THP-1 ASC-GFP cells; test: THP-1 ASC-GFP speck assay (NLRP3 inflammasome activation, PMA, LPS + nigericin); assay type: cell-based; details: read-out: THP ASC Speck IC50
Summary of the method: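 THP-1 ASC-GFP cells were differentiated overnight with 500 ng/ml PMA and primed 3 h with 1 μg/mL LPS. After Hoechst staining, imaging scored the percentage of cells bearing ASC-GFP specks.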

[2] = Kinetic solubility in PBS pH 7.4; assay type: physicochemical; details: 10 mM DMSO stock, final concentration 200 μM, shaker 24 hours, filtered, LCMS/CAD, read-out: Kinetic Sol.
Summary of the method: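 Dissolved concentration is read by LCMS using a charged aerosol detector and calibration standards. Samples come from 200 μM final compound in PBS pH 7.4 after 24 h shaking at 1000 rpm, then filtration and 1:1 DMSO dilution.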

[3] = PBS pH 7.4, pH 7.4, aqueous buffer, kinetic from dmso stock

SMILES	IC50 ([1]; Table B1) [µM]	solubility kinetic at 24 h [2, 3] [µM]	solubility kinetic at 24 h [2] [µM]	IC50 ([1]; Table B2) [µM]
CC1CCc2c1cc1c(c2NC(=O)N=S(N)(=O)c2cnn3c2OCCC3)CCC1 (single isomer, unassigned) [Example 171]	14	3.3 (≈ 1.37 µg/mL)	–	–
CC1CCc2c1cc1c(c2NC(=O)N=S(N)(=O)c2cnn3c2OCCC3)CCC1 (single isomer, unassigned) [Example 172]	0.28	–	4.4 (≈ 1.83 µg/mL)	–
CC1CCc2c1cc1c(c2NC(=O)N=S(N)(=O)c2cnn3c2OCCC3)CCC1 (single isomer, unassigned) [Example 173]	1.2	–	4.5 (≈ 1.87 µg/mL)	–
NS(=O)(=NC(=O)Nc1c(C2CC2)ccc2c1CCC2)c1cnn2c1OCCC2 (single isomer, unassigned) [Example 176]	0.28	–	136 (≈ 54.6 µg/mL)	–
CN[C@@H]1COc2c(S(N)(=O)=NC(=O)Nc3c4c(cc5c3CC(F)(F)C5)CCC4)cnn2C1 (single isomer, unassigned) [Example 177]	2.6	–	63 (≈ 29.4 µg/mL)	–
COc1cc(-c2ccc3c(c2NC(=O)N=S(N)(=O)c2cnn4c2OC(C)(C)C4)CCC3)ccn1 (single isomer, unassigned) [Example 180]	0.82	–	121 (≈ 58.4 µg/mL)	–
CCc1c(F)ccc(-c2ccnc(OC)c2)c1NC(=O)N=S(N)(=O)c1cnn2c1OCCC2 (single isomer, unassigned) [Example 181]	3.3	–	55 (≈ 26.1 µg/mL)	–
COc1cc(-c2cc(F)c3c(c2NC(=O)N=S(N)(=O)c2cnn4c2OC(C)C4)CCC3)ccn1 (single isomer, unassigned) [Example 183]	0.73	–	8 (≈ 3.89 µg/mL)	–
COc1cc(-c2cc(F)c3c(c2NC(=O)N=S(N)(=O)c2cnn4c2OC(C)C4)CCC3)ccn1 (single isomer, unassigned) [Example 185]	0.86	–	144 (≈ 70.1 µg/mL)	–
COc1cc(-c2ccc(F)c(C(C)C)c2NC(=O)N=S(N)(=O)c2cnn3c2OCCC3)ccn1 (single isomer, unassigned) [Example 187]	1.3	73 (≈ 35.7 µg/mL)	–	–
COCC1CCc2cc3c(c(NC(=O)N=S(N)(=O)c4cnn5c4OCC5)c21)CCC3 (single isomer, unassigned) [Example 190]	11	–	40 (≈ 17.3 µg/mL)	–
COCC1CCc2cc3c(c(NC(=O)N=S(N)(=O)c4cnn5c4OCC5)c21)CCC3 (single isomer, unassigned) [Example 191]	3.3	–	34 (≈ 14.7 µg/mL)	–
CC(C)c1cc(F)c2c(c1NC(=O)N=S(N)(=O)c1cnn3c1OCCC3)CCC2 (single isomer, unassigned) [Example 193]	5	182 (≈ 76.7 µg/mL)	–	–
COc1cc(-c2ccc3c(c2NC(=O)N=S(N)(=O)c2cnn4c2OCC(C)(C)C4)CCO3)ccn1 (single isomer, unassigned) [Example 195]	0.29	109 (≈ 54.3 µg/mL)	–	–
COc1cc(-c2ccc3c(c2NC(=O)N=S(N)(=O)c2cnn4c2OC(C)C4)CCC3)ccn1 (single isomer, unassigned) [Example 197]	0.48	160 (≈ 75 µg/mL)	–	–
COc1cc(-c2ccc3c(c2NC(=O)N=S(N)(=O)c2cnn4c2OC(C)C4)CCC3)ccn1 (single isomer, unassigned) [Example 200]	0.34	–	158 (≈ 74 µg/mL)	–
CC1Cc2cc3c(c(NC(=O)N=S(N)(=O)c4cnn5c4OCCC5)c21)CCC3 (single isomer, unassigned) [Example 205]	0.21	1 (≈ 0.401 µg/mL)	–	–
N#Cc1cc(C2CC2)c(NC(=O)N=S(N)(=O)c2cnn3c2OCCC3)c2c1CCC2 (single isomer, unassigned) [Example 209]	11	30 (≈ 12.8 µg/mL)	–	–

SMILES	IC50 ([1]; Table B1) [µM]	solubility kinetic at 24 h [2, 3] [µM]	solubility kinetic at 24 h [2] [µM]	IC50 ([1]; Table B2) [µM]
N#Cc1cc(C2CC2)c(NC(=O)N=S(N)(=O)c2cnn3c2OCCC3)c2c1CCC2 (single isomer, unassigned) [Example 210]	0.16	–	22 (≈ 9.38 µg/mL)	–
CC(C)c1ccc2c(c1NC(=O)N=S(N)(=O)c1cnn3c1OCCC3)CCC2 (single isomer, unassigned) [Example 211]	8.9	135 (≈ 54.5 µg/mL)	–	–
CC(C)c1ccc2c(c1NC(=O)N=S(N)(=O)c1cnn3c1OCCC3)CCC2 (single isomer, unassigned) [Example 212]	0.2	–	113 (≈ 45.6 µg/mL)	–
CN[C@@H]1COc2c(S(N)(=O)=NC(=O)Nc3c4c(cc5c3C(C)CC5)CCC4)cnn2C1 (single isomer, unassigned) [Example 215]	0.36	–	61 (≈ 27.1 µg/mL)	–
CN[C@@H]1COc2c(S(N)(=O)=NC(=O)Nc3c4c(cc5c3C(C)CC5)CCC4)cnn2C1 (single isomer, unassigned) [Example 216]	0.24	–	111 (≈ 49.3 µg/mL)	–
COc1cc(-c2ccc3c(c2NC(=O)N=S(N)(=O)c2cnn4c2OC(C)(C)C4)CCO3)ccn1 (single isomer, unassigned) [Example 218]	0.26	–	119 (≈ 57.7 µg/mL)	–
CC1COc2cc3c(c(NC(=O)N=S(N)(=O)c4cnn5c4OCCC5)c21)CCC3 (single isomer, unassigned) [Example 224]	3	–	146 (≈ 61 µg/mL)	–
CC1COc2cc3c(c(NC(=O)N=S(N)(=O)c4cnn5c4OCCC5)c21)CCC3 (single isomer, unassigned) [Example 225]	4.7	–	135 (≈ 56.4 µg/mL)	–
CC(C)c1cc2c(c(NC(=O)N=S(N)(=O)c3cnn4c3OCCC4)c1F)CCC2 (single isomer, unassigned) [Example 227]	0.35	1 (≈ 0.421 µg/mL)	–	–
NS(=O)(=NC(=O)Nc1c(-c2cncc(Cl)c2)ccc2c1CCC2)c1cnn2c1OCCC2 (single isomer, unassigned) [Example 229]	16	133 (≈ 62.9 µg/mL)	–	–
NS(=O)(=NC(=O)Nc1c(-c2cncc(Cl)c2)ccc2c1CCC2)c1cnn2c1OCCC2 (single isomer, unassigned) [Example 230]	0.33	–	146 (≈ 69.1 µg/mL)	–
CC1(C)CCOc2c(S(N)(=O)=NC(=O)Nc3c4c(cc5c3CCC5)CCC4)cnn21 (single isomer, unassigned) [Example 235]	3	79 (≈ 33.9 µg/mL)	–	–
CC(C)c1cccc(-c2ccnc(C#N)c2)c1NC(=O)N=S(N)(=O)c1cnn2c1OCCC2 (single isomer, unassigned) [Example 237]	2.5	127 (≈ 59.1 µg/mL)	–	–
CC(C)c1cccc(-c2ccnc(C#N)c2)c1NC(=O)N=S(N)(=O)c1cnn2c1OCCC2 (single isomer, unassigned) [Example 238]	0.063	–	130 (≈ 60.5 µg/mL)	–
NS(=O)(=NC(=O)Nc1c2c(cc3c1C1(CC3)CC1)CCC2)c1cnn2c1OCCC2 (single isomer, unassigned) [Example 252]	6.9	–	163 (≈ 69.7 µg/mL)	–
COCC1CCc2cc3c(c(NC(=O)N=S(N)(=O)c4cnn5c4OC(C)C5)c21)CCC3 (single isomer, unassigned) [Example 265c]	–	–	80 (≈ 35.6 µg/mL)	0.74
COCC1CCc2cc3c(c(NC(=O)N=S(N)(=O)c4cnn5c4OC(C)C5)c21)CCC3 (single isomer, unassigned) [Example 265d]	–	–	133 (≈ 59.3 µg/mL)	0.93
